# Tests used:
# MCF7 = experiment: Antiproliferative activity against human MCF7 cells assessed as inhibition of cell proliferation incubated for 48 hrs by MTT assay; type: functional, cell-based; details: MCF7, 48 h
# B16-F10 [1] = experiment: Antiproliferative activity against mouse B16-F10 cells assessed as inhibition of cell proliferation incubated for 48 hrs by MTT assay; type: functional, cell-based; details: B16-F10, 48 h
# HeLa = experiment: Antiproliferative activity against human HeLa cells assessed as inhibition of cell proliferation incubated for 48 hrs by MTT assay; type: functional, cell-based
# HepG2 = experiment: Antiproliferative activity against human HepG2 cells assessed as inhibition of cell proliferation incubated for 48 hrs by MTT assay; type: functional, cell-based; details: HepG2, 48 h
# [2] = Resistance index, ratio of IC50 for antiproliferative activity against paclitaxel resistant human A2780/Taxol cells to IC50 for antiproliferative activity against parental human A2780S cells; type: functional
# [3] = Resistance index, ratio of IC50 for antiproliferative activity against paclitaxel resistant human A549/TxR cells to IC50 for antiproliferative activity against parental human A549S cells; type: functional
# [4] = Toxicity in C57 mouse implanted with mouse B16-F10 cells assessed as pathological changes in heart at 5 mg/kg, ip administered every day for 14 days by H&E staining based microscopic analysis; type: organism-based; details: in vivo, 336 h, time 14 day
# [5] = Antiproliferative activity against parental human A549S cells assessed as inhibition of cell proliferation incubated for 48 hrs by MTT assay; type: functional, cell-based
# [6] = Toxicity in C57 mouse implanted with mouse B16-F10 cells assessed as body weight loss at 5 mg/kg, ip administered every day for 14 days; type: organism-based; details: in vivo, 336 h, time 14 day
# [7] = Toxicity in C57 mouse implanted with mouse B16-F10 cells assessed as pathological changes in kidney at 5 mg/kg, ip administered every day for 14 days by H&E staining based microscopic analysis; type: organism-based; details: in vivo, 336 h, time 14 day
# B16-F10 [8] = experiment: Antitumor activity against mouse B16-F10 cells implanted in C57 mouse assessed as tumor growth inhibition at 5 mg/kg, ip administered every day for 14 days relative to control; type: functional; details: B16-F10, 336 h, time 14 day, read-out: TGI
# A2780/Taxol = experiment: Antiproliferative activity against paclitaxel resistant human A2780/Taxol cells assessed as inhibition of cell proliferation incubated for 48 hrs by MTT assay; type: functional, cell-based
# [9] = Antiproliferative activity against paclitaxel resistant human A549/TxR cells assessed as inhibition of cell proliferation incubated for 48 hrs by MTT assay; type: functional, cell-based
# [10] = Toxicity in C57 mouse implanted with mouse B16-F10 cells assessed as pathological changes in liver at 5 mg/kg, ip administered every day for 14 days by H&E staining based microscopic analysis; type: organism-based; details: in vivo, 336 h, time 14 day
# A2780S = experiment: Antiproliferative activity against parental human A2780S cells assessed as inhibition of cell proliferation incubated for 48 hrs by MTT assay; type: functional, cell-based
# B16-F10 [11] = experiment: Antitumor immunity in C57 mouse implanted with mouse B16-F10 cells assessed as increase in CD3+ CD8+ cytotoxic T cells in tumor at 5 mg/kg, ip administered every day for 14 days by flow cytometric analysis (reference value: 0.340%); type: functional; details: time 14 day
# B16-F10 [12] = experiment: Antitumor immunity in C57 mouse implanted with mouse B16-F10 cells assessed as increase in CD3+ CD4+ helper T cells in tumor at 5 mg/kg, ip administered every day for 14 days by flow cytometric analysis (reference value: 0.332%); type: functional; details: time 14 day
IC50 (MCF7),IC50 (B16-F10 [1]),IC50 (HeLa),IC50 (HepG2),Structure (SMILES),also measured
602 nM,631 nM,818 nM,509 nM,CCn1ccc2ccc(-c3nc4c(-c5cc(OC)c(OC)c(OC)c5)nccc4[nH]3)cc21,
,,,,CC(=O)O[C@H]1C(=O)[C@@]2(C)[C@H]([C@H](OC(=O)c3ccccc3)[C@]3(O)C[C@H](OC(=O)[C@H](O)[C@@H](NC(=O)c4ccccc4)c4ccccc4)C(C)=C1C3(C)C)[C@]1(OC(C)=O)CO[C@@H]1C[C@@H]2O [PACLITAXEL],Ratio IC50 [2]: 746.5; Ratio IC50 [3]: 135.9; Activity [4]: Non-Toxic; IC50 [5]: 24.9 nM; Activity [6]: Non-Toxic; Activity [7]: Non-Toxic; inhibition in vivo at 5 mg/kg (B16-F10 [8]): 70.4%; IC50 (A2780/Taxol): 2020 nM; IC50 [9]: 3380 nM; Activity [10]: Non-Toxic; IC50 (A2780S): 2.7 nM
135 nM,197 nM,154 nM,82 nM,COc1cc(-c2n[nH]c3cnc(-c4cccc5c4ccn5C)cc23)cc(OC)c1OC,
319 nM,271 nM,188 nM,87 nM,COc1ccc(-c2ccc3[nH]nc(-c4cc(OC)c(OC)c(OC)c4)c3n2)cc1,
36 nM,98 nM,173 nM,49 nM,COc1cc(-c2n[nH]c3ccc(-c4ccc5c(ccn5C)c4)cc23)cc(OC)c1OC,
861 nM,1000 nM,969 nM,248 nM,COc1cc(-c2n[nH]c3cnc(-c4ccc5c(ccn5C)c4)cc23)cc(OC)c1OC,
58 nM,32 nM,92 nM,19 nM,COc1cc(-c2n[nH]c3ccc(-c4ccc(C)cc4)nc23)cc(OC)c1OC,
35 nM,43 nM,48 nM,16 nM,COc1cc(-c2n[nH]c3ccc(-c4ccc5c(ccn5C)c4)nc23)cc(OC)c1OC,
,,,15 nM,COc1cc(-c2cccc3[nH]c(-c4cccc5c4ccn5C)nc23)cc(OC)c1OC,
36 nM,60 nM,71 nM,44 nM,COc1cc(-c2nccc3[nH]c(-c4ccc5c(ccn5C)c4)nc23)cc(OC)c1OC,
28 nM,21 nM,40 nM,6 nM,COc1cc(-c2n[nH]c3ccc(-c4cccc5c4ccn5C)nc23)cc(OC)c1OC,
7660 nM,5170 nM,5930 nM,4700 nM,COc1cc(-c2nn(C(=O)OC(C)(C)C)c3cnc(-c4cccc5c4ccn5C)cc23)cc(OC)c1OC,
22 nM,18 nM,29 nM,11 nM,CCn1ccc2c(-c3nc4c(-c5cc(OC)c(OC)c(OC)c5)nccc4[nH]3)cccc21,
30 nM,33 nM,45 nM,18 nM,COc1cc(-c2nccc3[nH]c(-c4ccc5ccn(C)c5c4)nc23)cc(OC)c1OC,
277 nM,386 nM,581 nM,210 nM,COc1cc(-c2nn(C(=O)OC(C)(C)C)c3ccc(-c4cccc5c4ccn5C)nc23)cc(OC)c1OC,
,,,,Cc1c(COc2cc3c(cc2Cl)CN(C(C)(C)C(=O)O)C(c2cccc(C#N)c2)O3)cccc1-c1ccccc1 (centres undefined),Activity [4]: Non-Toxic; Activity [6]: Non-Toxic; Activity [7]: Non-Toxic; Activity (B16-F10 [11]): 2.27%; inhibition in vivo at 5 mg/kg (B16-F10 [8]): 48.5%; Activity (B16-F10 [12]): 1.43%; Activity [10]: Non-Toxic
260 nM,310 nM,105 nM,238 nM,COc1cc(OC)cc(-c2nccc3[nH]c(-c4cccc5c4ccn5C)nc23)c1,
317 nM,237 nM,195 nM,130 nM,CCn1ccc2cc(-c3nc4c(-c5cc(OC)c(OC)c(OC)c5)nccc4[nH]3)ccc21,
957 nM,683 nM,742 nM,115 nM,COc1cc(-c2n[nH]c3ccc(-c4ccccc4)nc23)cc(OC)c1OC,
45 nM,66 nM,48 nM,30 nM,COc1cc(-c2n[nH]c3ccc(-c4cccc5c4ccn5C)cc23)cc(OC)c1OC,
350 nM,492 nM,677 nM,356 nM,COc1cc(-c2nn(C(=O)OC(C)(C)C)c3ccc(-c4cccc5c4ccn5C)cc23)cc(OC)c1OC,
699 nM,199 nM,453 nM,256 nM,COc1ccc(-c2nccc3[nH]c(-c4cccc5c4ccn5C)nc23)cc1OC,
213 nM,138 nM,92 nM,119 nM,Cn1ccc2c(-c3nc4c(-c5ccc6c(c5)OCCO6)nccc4[nH]3)cccc21,

Structure (SMILES),IC50 (MCF7),IC50 (B16-F10 [1]),IC50 (HeLa),IC50 (HepG2),also measured
COc1cc2c(c(OC)c1OC)-c1ccc(OC)c(=O)cc1[C@@H](NC(C)=O)CC2 [COLCHICINE],22 nM,,,,IC50 [5]: 104 nM; IC50 (A2780/Taxol): 670 nM; IC50 [9]: 677 nM; IC50 (A2780S): 23.2 nM

# Source: ChEMBL document CHEMBL5338766, “X-ray Crystal Structure-Guided Discovery of Novel Indole Analogues as Colchicine-Binding Site Tubulin Inhibitors with Immune-Potentiating and Antitumor Effects against Melanoma” (J Med Chem, 2023)
